Results taken from patent publication US20110201596A1, “Methods for Providing Oxidatively Stable Ophthalmic Compositions” (priority 2005, published 2011).
Structures can show the parent of a compound that is named as a salt.

Test: Stability of ketotifen fumarate in borate buffered saline over autoclave cycles, analysed by HPLC
Format: physicochemical
Details: for % ketotifen: no PAA; for % ketotifen Unsparged: Example 3: buffer with poly(acrylic acid); for % ketotifen Nitrogen Sparged: Example 4: buffer with poly(acrylic acid); for ketotifen stability: after autoclaving
Experimental: A buffer solution was formed by dissolving 8.3 gm NaCl (from Sigma Aldrich), 9.1 gm boric acid (from Mallinckrodt) and 1 gm sodium borate (from Mallinckrodt) in 1 L deionized water (from Milli Q). […] Ketotifen fumarate (from Sigma Aldrich) was added to prepare a solution of approximately 80 ppm in the buffer solution. The ketotifen solution (3 mL) was placed in vials, autoclaved for the number of cycles shown in Table 1, below and analyzed as a function of autoclave cycle (3 replicate per autoclave cycle) using HPLC using an HP1100 and an Agilent Zorbax Eclipse XDB-C18 and Rapid Resolution HT 50×4.6 mm×1.8μ column and the following conditions:
Mobile Phase: • Eluent A: 17% acetonitrile in 0.025 M dihydrogen potassium phosphate buffer • 0.2% triethylamine, 0.13% o-phosphoric acid • Eluent B: 50% acetonitrile in 0.025 M dihydrogen potassium phosphate buffer • 0.2% triethylamine, 0.13% o-phosphoric acid
Example 1 was repeated, except that the buffer solution was sparged (with nitrogen) overnight (˜12 hrs) at about 370 standard cubic centimeter per minute (SCCM) and subsequently transferred to a nitrogen box (<0.5% oxygen). The ketotifen solution of about 90 ppm was prepared and placed in vials as described above, but in nitrogen box. The vials were autoclaved and analyzed as described in Example 1.
Examples 1 and 2 was repeated, except that 10 gm of poly(acrylic acid) (PAA, Mw, 225,000, from Polysciences, Inc., 20% in water) was added to the buffer solution. The vials were autoclaved and analyzed as described in Example 1.

For `CN1CCC(=C2c3ccccc3CC(=O)c3sccc32)CC1` [ketotifen, Ketotifen fumarate], the “% ketotifen” value (Example 1: ~80 ppm in buffer pH 7.65, unsparged, autoclave cycle 0) was 100%, the “% ketotifen” value (Example 1: ~80 ppm in buffer pH 7.65, unsparged, autoclave cycle 1) was 0% and the “% ketotifen” value (Example 1: ~80 ppm in buffer pH 7.65, unsparged, autoclave cycle 2) was 0%. The “% ketotifen” value (Example 1: ~80 ppm in buffer pH 7.65, unsparged, autoclave cycle 3) was 0%, the “% ketotifen” value (Example 2: ~90 ppm, buffer nitrogen sparged ~12 hrs, nitrogen box, autoclave cycle 0) was 100% and the “% ketotifen” value (Example 2: ~90 ppm, buffer nitrogen sparged ~12 hrs, nitrogen box, autoclave cycle 1) was 98%. For the same compound, the “% ketotifen” value (Example 2: ~90 ppm, buffer nitrogen sparged ~12 hrs, nitrogen box, autoclave cycle 2) was 98%, the “% ketotifen” value (Example 2: ~90 ppm, buffer nitrogen sparged ~12 hrs, nitrogen box, autoclave cycle 3) was 98% and the “% ketotifen Unsparged” value (autoclave cycle 0) was 100%. For the same compound, the “% ketotifen Unsparged” value (autoclave cycle 1) was 94%, the “% ketotifen Unsparged” value (autoclave cycle 2) was 81% and the “% ketotifen Unsparged” value (autoclave cycle 3) was 66%. For the same compound, the “% ketotifen Nitrogen Sparged” value (autoclave cycle 0) was 100%, the “% ketotifen Nitrogen Sparged” value (autoclave cycle 1) was 99% and the “% ketotifen Nitrogen Sparged” value (autoclave cycle 2) was 99%. The “% ketotifen Nitrogen Sparged” value (autoclave cycle 3) was 98%, the ketotifen stability (buffer sparged and solution kept under nitrogen (Table 2)) was 98% and the ketotifen stability (unsparged buffer (Table 1)) was 0%.
